Laboratory results: patent US10745382B2 (BRISTOL-MYERS SQUIBB COMPANY, priority 2015, dated 2020)

Molecular target: T1, PD-1/PD-L1 (Homo sapiens, UniProt Q9NZQ7)
T1 construct: made in house; host or cells: HEK293T
Test: PD-1/PD-L1 Homogenous Time-Resolved Fluorescence (HTRF) binding assay
Conditions: PD-L1-His 10 nM, PD-1-Ig 20 nM; value given as range class; read-out: Range or IC50
Summary of the method: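 dPBS + 0.1% BSA + 0.05% Tween-20 buffer; Eu-cryptate anti-Ig 1 nM final, APC anti-His 20 nM final; HTRF read. Counter-assays: PD-1-Ig/PD-L2-His 20 & 5 nM, CD80-His/PD-L1-Ig 100 & 10 nM.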

T1 sequence (Q9NZQ7 with tags, fused parts or gaps): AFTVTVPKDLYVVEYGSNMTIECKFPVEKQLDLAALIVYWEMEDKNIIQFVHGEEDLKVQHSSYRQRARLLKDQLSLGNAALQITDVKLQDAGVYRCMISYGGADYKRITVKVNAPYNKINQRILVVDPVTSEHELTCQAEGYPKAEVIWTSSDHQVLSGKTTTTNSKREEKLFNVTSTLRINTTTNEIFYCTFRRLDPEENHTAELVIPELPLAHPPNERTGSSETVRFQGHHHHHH

IC50 [nM]	Structure (SMILES)
100 to 2000	Cc1c(COc2cc(OCc3cncc(C#N)c3)c(CN3CCCC[C@H]3C(=O)O)cc2Cl)cccc1-c1cccc(OCC(CO)(CO)CO)c1Cl [Example 2084, (S)-1-(5-chloro-4-((2′-chloro-3′-(3-hydroxy-2,2-bis(hydroxymethyl)propoxy)-2-methyl-[1,1′-biphenyl]-3-yl)methoxy)-2-((5-cyanopyridin-3-yl)methoxy)benzyl)piperidine-2-carboxylic Acid]
2010 to 10000	Cc1c(COc2cc(OCc3cncc(C#N)c3)c(CN3CCOC[C@H]3C(=O)O)cc2Cl)cccc1-c1cccc(C(=O)N(C)C)c1C [Example 4036, (S)-4-(5-chloro-2-((5-cyanopyridin-3-yl)methoxy)-4-((3′-(dimethylcarbamoyl)-2,2′-dimethyl-[1,1′-biphenyl]-3-yl)methoxy)benzyl)morpholine-3-carboxylic Acid]
0.21 to 10	Cc1c(COc2cc(OCc3cncc(C#N)c3)c(CN[C@](C)(CO)C(=O)O)cc2Cl)cccc1-c1cccc(OCCCN2CC(N(C)C)C2)c1Cl [Example 2013, (R)-2-((5-chloro-4-((2′-chloro-3′-(3-(3-(dimethylamino)azetidin-1-yl)propoxy)-2-methyl-[1,1′-biphenyl]-3-yl)methoxy)-2-((5-cyanopyridin-3-yl)methoxy)benzyl)amino)-3-hydroxy-2-methylpropanoic Acid]
0.21 to 10	Cc1c(COc2cc(OCc3cncc(C#N)c3)c(CN3CCCC[C@H]3C(=O)O)cc2Cl)cccc1-c1cccc(OCCCN[C@@H](CO)C(C)C)c1C [Example 2237, (2S)-1-(5-chloro-2-((5-cyanopyridin-3-yl)methoxy)-4-((3′-(3-((R)-1-hydroxy-3-methylbutan-2-ylamino)propoxy)-2,2′-dimethylbiphenyl-3-yl)methoxy)benzyl)piperidine-2-carboxylic Acid]
0.21 to 10	Cc1c(COc2cc(OCc3cncc(C#N)c3)c(CO)cc2Cl)cccc1-c1cccc(OCCCN2CC[C@@H](O)C2)c1Cl [Example 2002, (R)-5-((4-chloro-5-((2′-chloro-3′-(3-(3-hydroxypyrrolidin-1-yl)propoxy)-2-methyl-[1,1′-biphenyl]-3-yl)methoxy)-2-(hydroxymethyl)phenoxy)methyl)nicotinonitrile]
0.21 to 10	Cc1c(COCCN2CC[C@@H](O)C2)cccc1-c1cccc(COc2cc(OCc3cncc(C#N)c3)c(CN(C)[C@@H](CO)C(=O)O)cc2Cl)c1C [Example 4130, N-(5-chloro-2-((5-cyanopyridin-3-yl)methoxy)-4-((3′-((2-((R)-3-hydroxypyrrolidin-1-yl)ethoxy)methyl)-2,2′-dimethyl-[1,1′-biphenyl]-3-yl)methoxy)benzyl)-N-methyl-L-serine]
0.21 to 10	Cc1c(COc2cc(OCc3cncc(C#N)c3)c(CN3CCCC[C@H]3C(=O)O)cc2Cl)cccc1-c1cccc(OCCCN2[C@@H]3CC[C@H]2CC(O)C3)c1C (stereo partly drawn) [Example 3048, (2S)-1-(5-chloro-2-((5-cyanopyridin-3-yl)methoxy)-4-((3′-(3-((1R,5S)-3-hydroxy-8-azabicyclo[3.2.1]octan-8-yl)propoxy)-2,2′-dimethyl-[1,1′-biphenyl]-3-yl)methoxy)benzyl)piperidine-2-carboxylic Acid]
0.21 to 10	COCC(COC)NCc1cc(Cl)c(OCc2cccc(-c3cccc(OCCCN4CC[C@@H](O)C4)c3Cl)c2C)cc1OCc1cncc(C#N)c1 [Example 2109, (R)-5-((4-chloro-5-((2′-chloro-3′-(3-(3-hydroxypyrrolidin-1-yl)propoxy)-2-methyl-[1,1′-biphenyl]-3-yl)methoxy)-2-(((1,3-dimethoxypropan-2-yl)amino)methyl)phenoxy)methyl)nicotinonitrile]
10 to 100	Cc1c(COc2cc(OCc3cncc(C#N)c3)c(CN[C@H](CO)C(=O)O)cc2Cl)cccc1-c1cccc(OCC(=O)N2CC[C@@H](O)C2)c1 [Example 1006, (R)-2-((5-chloro-2-((5-cyanopyridin-3-yl)methoxy)-4-((3′-(2-((R)-3-hydroxypyrrolidin-1-yl)-2-oxoethoxy)-2-methyl-[1,1′-biphenyl]-3-yl)methoxy)benzyl)amino)-3-hydroxypropanoic Acid]
0.21 to 10	Cc1c(COc2cc(OCc3cncc(C#N)c3)c(CN3CCCC[C@H]3C(=O)O)cc2Cl)cccc1-c1cccc(OCCCN2CCCC[C@H]2C(=O)O)c1C [Example 2268, (2S)-1-(3-(3′-((4-(((S)-2-carboxypiperidin-1-yl)methyl)-2-chloro-5-((5-cyanopyridin-3-yl)methoxy)phenoxy)methyl)-2,2′-dimethylbiphenyl-3-yloxy)propyl)piperidine-2-carboxylic Acid]
0.21 to 10	CC(=O)NCCNCc1cc(Cl)c(OCc2cccc(-c3cccc(OCCCN4CC[C@@H](O)C4)c3)c2C)cc1OCc1cncc(C#N)c1 [Example 1015, (R)—N-(2-((5-chloro-2-((5-cyanopyridin-3-yl)methoxy)-4-((3′-(3-(3-hydroxypyrrolidin-1-yl)propoxy)-2-methyl-[1,1′-biphenyl]-3-yl)methoxy)benzyl)amino)ethyl)acetamide]
10 to 100	Cc1c(COc2cc(OCc3cncc(C#N)c3)c(CN3C[C@@H](O)C[C@H]3C(=O)O)cc2Cl)cccc1-c1cccc(OCC(=O)N2CC[C@@H](O)C2)c1 [Example 1008, (2S,4S)-1-(5-chloro-2-((5-cyanopyridin-3-yl)methoxy)-4-((3′-(2-((R)-3-hydroxypyrrolidin-1-yl)-2-oxoethoxy)-2-methyl-[1,1′-biphenyl]-3-yl)methoxy)benzyl)-4-hydroxypyrrolidine-2-carboxylic Acid]
0.21 to 10	Cc1ccccc1-c1cccc(COc2cc(OCc3cncc(C#N)c3)c(CN3CCCC[C@H]3C(=O)O)cc2Cl)c1C [Example 3023, (S)-1-(5-chloro-2-((5-cyanopyridin-3-yl)methoxy)-4-((2,2′-dimethyl-[1,1′-biphenyl]-3-yl)methoxy)benzyl)piperidine-2-carboxylic Acid]

Second part, the molecule before the results:

Structure (SMILES)	IC50 [nM]
Cc1c(COc2cc(OCc3cncc(C#N)c3)c(CN[C@](C)(CO)C(=O)O)cc2Cl)cccc1-c1cccc(OCCCN(C)C[C@H](O)CO)c1Cl [Example 2024, (R)-2-((5-chloro-4-((2′-chloro-3′-(3-(((S)-2,3-dihydroxypropyl)(methyl)amino)propoxy)-2-methyl-[1,1′-biphenyl]-3-yl)methoxy)-2-((5-cyanopyridin-3-yl)methoxy)benzyl)amino)-3-hydroxy-2-methylpropanoic Acid]	0.21 to 10
Cc1c(COc2cc(OCc3ccc(F)c(F)c3)c(CN3CCCC[C@H]3C(=O)O)cc2Cl)cccc1-c1cccc(OCCCN2CC[C@@H](O)C2)c1C [Example 4512, (S)-1-(5-chloro-2-((3,4-difluorobenzyl)oxy)-4-((3′-(3-((R)-3-hydroxypyrrolidin-1-yl)propoxy)-2,2′-dimethyl-[1,1′-biphenyl]-3-yl)methoxy)benzyl)piperidine-2-carboxylic Acid]	0.21 to 10
CCNC(=O)c1cccc(-c2cccc(COc3cc(OCc4cncc(C#N)c4)c(CNC(CO)CO)cc3Cl)c2C)c1C [Example 4009, 3′-((2-chloro-5-((5-cyanopyridin-3-yl)methoxy)-4-(((1,3-dihydroxypropan-2-yl)amino)methyl)phenoxy)methyl)-N-ethyl-2,2′-dimethyl-[1,1′-biphenyl]-3-carboxamide]	10 to 100
Cc1c(COc2cc(OCc3cncc(C#N)c3)c(CNC(CO)CO)cc2Cl)cccc1-c1cccc(OCCCNC[C@H](O)CO)c1C [Example 2293, (S)-5-((4-chloro-2-(((1,3-dihydroxypropan-2-yl)amino)methyl)-5-((3′-(3-((2,3-dihydroxypropyl)amino)propoxy)-2,2′-dimethyl-[1,1′-biphenyl]-3-yl)methoxy)phenoxy)methyl)nicotinonitrile]	0.21 to 10
CC(CO)(CO)NCc1cc(Cl)c(OCc2cccc(-c3cccc(OCCCNC[C@H](O)CO)c3Cl)c2Cl)cc1OCc1cncc(C#N)c1 [Example 2054, (S)-5-((4-chloro-5-((2,2′-dichloro-3′-(3-((2,3-dihydroxypropyl)amino)propoxy)-[1,1′-biphenyl]-3-yl)methoxy)-2-(((1,3-dihydroxy-2-methylpropan-2-yl)amino)methyl)phenoxy)methyl)nicotinonitrile]	0.21 to 10
CNC(=O)c1cccc(-c2cccc(COc3cc(OCc4cc(F)cc(F)c4)c(CNC(C)(CO)CO)cc3Cl)c2C)c1C [Example 4029, 3′-((2-chloro-5-((3,5-difluorobenzyl)oxy)-4-(((1,3-dihydroxy-2-methylpropan-2-yl)amino)methyl)phenoxy)methyl)-N,2,2′-trimethyl-[1,1′-biphenyl]-3-carboxamide]	10 to 100
Cc1cc(C(=O)N2CCOCC2)ccc1-c1cccc(COc2cc(OCc3cncc(C#N)c3)c(CNC(CO)CO)cc2Cl)c1C [Example 2349, 5-((4-chloro-2-(((1,3-dihydroxypropan-2-yl)amino)methyl)-5-((2,2′-dimethyl-4′-(morpholine-4-carbonyl)-[1,1′-biphenyl]-3-yl)methoxy)phenoxy)methyl)nicotinonitrile]	10 to 100
Cc1c(COc2cc(OCc3cncc(C#N)c3)c(CNC(CO)(CO)CO)cc2Cl)cccc1-c1cccc(OCCCN2CCC(F)(F)C2)c1C [Example 4118, 5-((4-chloro-5-((3′-(3-(3,3-difluoropyrrolidin-1-yl)propoxy)-2,2′-dimethyl-[1,1′-biphenyl]-3-yl)methoxy)-2-(((1,3-dihydroxy-2-(hydroxymethyl)propan-2-yl)amino)methyl)phenoxy)methyl)nicotinonitrile]	0.21 to 10
Cc1c(COc2cc(OCc3cncc(S(C)(=O)=O)c3)c(CN[C@@](C)(CO)C(=O)O)cc2Cl)cccc1-c1cccc(OCCCN2CCC(O)(C(=O)O)CC2)c1C [Example 1041, (S)-1-(3-((3′-((4-(((2-carboxy-1-hydroxypropan-2-yl)amino)methyl)-2-chloro-5-((5-(methylsulfonyl)pyridin-3-yl)methoxy)phenoxy)methyl)-2,2′-dimethyl-[1,1′-biphenyl]-3-yl)oxy)propyl)-4-hydroxypiperidine-4-carboxylic Acid]	0.21 to 10
